Data published in BindingDB's records for patent US12509454 (Ideaya Biosciences, 2025).

Target: T1, DNA polymerase theta [1-899] (UniProt O75417)
T1 construct: 1-899
Test: ATPase activity of Pol theta (1-899) was determined using the assay
Procedure: Pol Theta ATPase activity was determined by measuring the rate of ATP turn over in a NADH oxidation-coupled enzymatic assay. 10-point dilution series of compounds were used in a 384 well format for the inhibition assays. Pol theta (1-899) (10 nM) in assay buffer (20 mM Tris HCl (pH 7.80), 80 mM KCl, 10 mM MgCl2, 1 mM DTT, 0.01% BSA, 0.01% Tween, 5% glycerol) was transferred to the test wells (20 μL), except the low control wells (20 μL of assay buffer was added to the low control wells). The plate was then incubated at room temperature for 15 min. An equal volume (20 μL) of 100 μM ATP, 300 nM dT50 (single-stranded DNA (ssDNA) containing 50 thymine bases), 300 μM NADH, 6 mM PEP, 10 U/mL lactate dehydrogenase and 20 U/mL pyruvate kinase in assay buffer was added to all the test wells. The plate was then centrifuged at 1000 rpm for 1 min. The reaction was monitored for 30 min by measuring absorbance (λ=340 nm) in a Tecan Spark multimode plate reader every minute. The high control (DMSO with enzyme) with low absorbance intensity represents no inhibition of ATPase reaction while the low control (DMSO with buffer) with high absorbance intensity represents full inhibition of ATPase activity. Slope of the reaction progress curves were used to calculate the rate of ATP hydrolysis.

T1 sequence (O75417 1-899): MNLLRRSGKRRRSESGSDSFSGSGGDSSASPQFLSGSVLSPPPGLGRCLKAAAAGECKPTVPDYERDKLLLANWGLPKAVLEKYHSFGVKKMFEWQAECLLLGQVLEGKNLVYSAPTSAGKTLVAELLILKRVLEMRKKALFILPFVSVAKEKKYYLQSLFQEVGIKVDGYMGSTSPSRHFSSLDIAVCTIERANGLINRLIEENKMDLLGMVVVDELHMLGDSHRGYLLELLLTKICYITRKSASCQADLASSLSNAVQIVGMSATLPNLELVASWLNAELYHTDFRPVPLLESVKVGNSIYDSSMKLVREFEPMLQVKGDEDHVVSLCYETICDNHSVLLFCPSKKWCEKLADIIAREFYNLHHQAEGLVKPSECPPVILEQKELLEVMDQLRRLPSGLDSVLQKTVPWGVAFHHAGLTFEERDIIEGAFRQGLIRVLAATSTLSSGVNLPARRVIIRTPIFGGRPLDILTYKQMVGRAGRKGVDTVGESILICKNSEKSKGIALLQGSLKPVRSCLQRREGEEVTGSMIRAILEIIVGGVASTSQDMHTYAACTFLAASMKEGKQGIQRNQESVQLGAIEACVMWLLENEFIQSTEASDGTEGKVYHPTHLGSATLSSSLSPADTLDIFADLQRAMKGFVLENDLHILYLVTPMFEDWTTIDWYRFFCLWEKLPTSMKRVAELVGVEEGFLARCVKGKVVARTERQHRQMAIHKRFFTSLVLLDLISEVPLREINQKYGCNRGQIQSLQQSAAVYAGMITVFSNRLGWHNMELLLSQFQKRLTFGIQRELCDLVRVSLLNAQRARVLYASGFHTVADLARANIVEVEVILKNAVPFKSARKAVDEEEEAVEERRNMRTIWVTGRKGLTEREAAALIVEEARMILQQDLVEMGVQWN

Compound	IC50
N#Cc1cc(-c2c(F)cccc2OC(F)F)c(C(=O)Nc2nnc(OCc3ccc(Cl)cn3)s2)cn1 [US12509454, Compound 193]	< 200 nM
O=C(Nc1nnc(OCc2ccc(Cl)cc2)s1)c1ccncc1N1CCO[C@@H]2C[C@@H]21 (mixture of isomers) [US12509454, Compound 178]	< 200 nM
CC(C)(O)C#Cc1ccc(C(=O)Nc2nnc(OCc3ccc(Cl)cc3)s2)c(N2CCOCC2)n1 [US12509454, Compound 29]	> 1000 nM
O=C(Nc1nnc(OCc2ccc(Cl)cc2)s1)c1cccnc1N1CCC(O)CC1 [US12509454, Compound 20]	> 1000 nM
